Measured values reported in paper PMC6068598 (ACS Omega, 2018).

What was measured:
monoamino oxidase B = conditions: no reference given; cited from earlier work
[1] = First-in-man PET brain uptake in healthy volunteers; conditions: for peak uptake, whole brain: initial perfusion phase, 1 min p.i., i.v. bolus, healthy volunteers
[2] = imidazolyl sulfoxide moiety; cited from earlier work
hTau-441 fibrils = hTau-441 fibrils (Homo sapiens, UniProt P10636); experiment: Inhibition of [3H]astemizole binding to synthetic hTau-441 fibrils
Sequence of hTau-441 fibrils (P10636 1-441 isoform P10636-8): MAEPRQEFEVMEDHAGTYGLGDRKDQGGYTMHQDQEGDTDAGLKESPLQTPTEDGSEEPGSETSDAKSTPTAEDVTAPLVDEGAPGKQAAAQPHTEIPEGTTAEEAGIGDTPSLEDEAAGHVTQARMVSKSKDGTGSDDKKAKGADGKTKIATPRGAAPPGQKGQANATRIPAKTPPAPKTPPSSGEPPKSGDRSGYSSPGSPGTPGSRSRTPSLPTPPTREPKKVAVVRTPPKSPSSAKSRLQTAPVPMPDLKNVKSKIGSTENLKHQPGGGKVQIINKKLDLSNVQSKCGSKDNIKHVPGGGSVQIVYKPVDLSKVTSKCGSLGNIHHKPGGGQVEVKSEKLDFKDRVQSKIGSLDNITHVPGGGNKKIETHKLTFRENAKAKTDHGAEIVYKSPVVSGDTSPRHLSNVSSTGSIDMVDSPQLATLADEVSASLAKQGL

monoamino oxidase A = conditions: cited from earlier work

CNc1ccc(-c2ccc3cc(OC[C@H](O)C[18F])ccc3n2)cn1 [[^18F]THK-5351]
affinity for monoamino oxidase B (monoamino oxidase B): high affinity

Cc1c(OCC(F)(F)[18F])ccnc1C[S+]([O-])c1nc2ccccc2n1C (centres unmarked) [[^18F]2]
radioactivity concentration in brain at 10 min ([1]; 10 min): about 3.0 % of the injected dose | radioactivity concentration in brain at 27 min ([1]; 27 min): ~2.0 % of the injected dose | radioactivity concentration in brain at 90 min ([1]; 90 min): ~1.3 % of the injected dose | peak uptake, whole brain [1]: 5.0–6.0 % i.D.

Cc1c(OCC(F)(F)[18F])ccnc1C[S+]([O-])c1nc2ccccc2[nH]1 (centres unmarked) [[^18F]1, [^18F]lansoprazole]
whole brain activity at 2 min p.i. ([1]; 2 min p.i.): less than 1.0 % i.D. | whole brain activity after 90 min ([1]; after 90 min): below 0.5% | peak uptake, whole brain [1]: 2.5–3.5 % i.D. | pKa (N–H-acidity) [2]: ~4

Cc1c(OCCF)ccnc1C[S+]([O-])c1nc2ccccc2n1C (centres unmarked) [11t, 2-(((4-(2-Fluoroethoxy)-3-methylpyridin-2-yl)methyl)sulfinyl)-1-methyl-1H-benzoimidazole]
htau fibril binding result (hTau-441 fibrils): very high affinity

[18F]c1ccc(-c2ccc3c(c2)[nH]c2ccncc23)cn1 [[^18F]T807]
affinity to monoamino oxidase A (monoamino oxidase A): high affinity
